According to the SangsterLogP compilation:

**Q.** Which logP does the source give for `O=c1[nH]cnc2ccccc12` here?
**A.** The logP was 0.77.

Remark: another data set of the same source

**Q.** Which logP does the source give for `O=C1NC(=O)C(c2ccccc2)C(=O)N1` here?
**A.** Its logP is -0.17.

**Q.** Which logP does the source give for `O=C1CCc2ccccc2N1` here?
**A.** The logP was 1.34.

**Q.** For `O=c1[nH]c2ccccc2cc1-c1ccccc1`, which logP is on record?
**A.** Its logP is 2.99.

**Q.** With `c1ccc(C2CCNCC2)cc1` as the molecule, how does the logP read?
**A.** Its logP is 2.39.

**Q.** Which logP does the source give for `c1ccc(-c2nc3ccccc3[nH]2)cc1` here?
**A.** The logP was 3.3.

**Q.** Which logP does the source give for `O=C1CC(c2ccccc2)c2ccccc2N1` (stereo unspecified) here?
**A.** The logP was 2.79.

**Q.** For `c1ccc(-c2ncc3ccccc3n2)cc1`, which logP is on record?
**A.** Its logP is 3.42.

**Q.** Which logP does the source give for `c1ccc(-c2nccs2)cc1` here?
**A.** The logP was 2.77.

**Q.** Which logP does the source give for `c1ccc(-c2nc3ccccc3o2)cc1` here?
**A.** Its logP is 3.67.

**Q.** For `O=C1CCC(c2ccccc2)CC1`, which logP is on record?
**A.** The logP was 2.3.

**Q.** Which logP does the source give for `O=C1NC(=O)c2cc(-c3ccccc3)ccc21` here?
**A.** Its logP is 2.97.

**Q.** With `O=c1[nH]nc(-c2ccccc2)c2ccccc12` as the molecule, how does the logP read?
**A.** The logP was 2.48.

**Q.** With `c1ccc(-c2ccncc2)cc1` as the molecule, how does the logP read?
**A.** The logP was 2.58.

**Q.** With `c1ccc(C2CCCN2)cc1` (stereo unspecified) as the molecule, how does the logP read?
**A.** Its logP is 1.89.

**Q.** Which logP does the source give for `c1ccc(-c2c[nH]nn2)cc1` here?
**A.** Its logP is 1.91.

**Q.** With `c1ccc(-c2cnc3ccccc3n2)cc1` as the molecule, how does the logP read?
**A.** The logP was 3.48.

**Q.** For `c1ccc(-c2nc[nH]n2)cc1`, which logP is on record?
**A.** The logP was 1.54.

**Q.** Which logP does the source give for `O=C1Nc2ccccc2C1c1ccccc1` (stereo unspecified) here?
**A.** The logP was 2.59.

**Q.** For `O=C1Nc2ccccc2CC1c1ccccc1` (stereo unspecified), which logP is on record?
**A.** The logP was 2.93.

**Q.** Which logP does the source give for `O=C1C=CC(=O)C(c2ccccc2)=C1` here?
**A.** Its logP is 1.95.
